From article PMC4532598 (European journal of pharmacology, 2015)
“Also recorded” adds a separate entry of the source.

Experiments:
[1] = target: T1, hKOP receptor (Homo sapiens, UniProt P41145)
[2] = target: T1, hKOP receptor; experiment: cell-based; format: cell-based; conditions: for Emax: read-out: Internalization Emax (% receptor internalized)
[3] = target: T1, hKOP receptor; experiment: biochemical; format: biochemical; conditions: for Emax: read-out: [35S]GTPγS binding Emax
[4] = target: T2, mKOP receptor (Mus musculus, UniProt P33534)
[5] = target: T2, mKOP receptor; experiment: cell-based; format: cell-based
[6] = target: T2, mKOP receptor; experiment: biochemical; format: biochemical; conditions: for Emax: read-out: [35S]GTPγS binding Emax
[7] = test system: mice; conditions: mouse, in vivo; cited from earlier work

T2 sequence (P33534 whole entry): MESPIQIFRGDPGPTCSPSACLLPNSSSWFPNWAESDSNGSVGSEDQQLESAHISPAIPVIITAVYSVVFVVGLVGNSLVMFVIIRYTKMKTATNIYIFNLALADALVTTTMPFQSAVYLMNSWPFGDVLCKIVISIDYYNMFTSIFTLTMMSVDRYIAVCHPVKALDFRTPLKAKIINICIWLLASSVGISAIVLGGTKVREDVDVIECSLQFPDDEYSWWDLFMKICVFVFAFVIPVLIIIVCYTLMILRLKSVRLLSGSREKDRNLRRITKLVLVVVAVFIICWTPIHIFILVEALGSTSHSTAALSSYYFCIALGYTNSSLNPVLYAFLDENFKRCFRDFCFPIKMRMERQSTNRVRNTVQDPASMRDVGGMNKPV
T1 sequence (P41145 whole entry): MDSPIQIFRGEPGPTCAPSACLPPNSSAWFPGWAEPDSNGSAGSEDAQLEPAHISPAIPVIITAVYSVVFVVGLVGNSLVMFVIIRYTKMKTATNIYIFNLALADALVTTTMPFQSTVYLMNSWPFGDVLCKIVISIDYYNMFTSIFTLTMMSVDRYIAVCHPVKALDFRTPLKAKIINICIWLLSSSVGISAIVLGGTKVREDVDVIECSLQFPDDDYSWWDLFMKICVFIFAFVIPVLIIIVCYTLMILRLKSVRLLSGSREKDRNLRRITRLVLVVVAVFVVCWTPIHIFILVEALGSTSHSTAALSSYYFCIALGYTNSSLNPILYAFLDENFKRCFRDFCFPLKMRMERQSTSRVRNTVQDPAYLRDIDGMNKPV

CCC12CCN(CC3(O)CC3)C(Cc3ccc(O)cc31)C2(C)C (centres unmarked) [Bremazocine, bremazocine]
Bias factor (larger RAi divided by smaller) [1]: I ^c, 1.2 | Bias factor, direction of bias [1]: I ^c, 1.2 | Functional selectivity (bias) in words [1]: did not reach statistical significance | log RAi−I [2]: 0.58 ± 0.16 | EC50 ([2]; Internalization EC50, mean): 0.0014 µM | EC50 ([2]; Internalization pEC50): 0.00135 µM | Emax [2]: 39.2 ± 1.8% | log RAi−G [3]: 0.50 ± 0.11 | EC50 ([3]; [35S]GTPγS binding EC50, mean): 0.00095 µM | Emax [3]: 68.2 ± 2%

Oc1ccc2c(c1)[C@@]13CCCC[C@@]1(O)[C@@H](C2)N(CC1CCC1)CC3 [Butorphanol, butorphanol]
Bias factor, direction of bias [1]: I ^c, 4.7 | Functional selectivity (bias) in words [1]: did not reach statistical significance | log RAi−I [2]: 0.088 ± 0.18 | EC50 ([2]; Internalization pEC50): 0.00331 µM | Emax [2]: 33.4 ± 3.2% | EC50 ([3]; [35S]GTPγS binding EC50, mean): 0.0024 µM | EC50 ([3]; [35S]GTPγS binding pEC50): 0.00234 µM | Emax [3]: 25.6 ± 1.8%

CC[C@]12CCN(CC3CC3)[C@H](C(=O)c3ccc(O)cc31)[C@@H]2C [EKC, ethylketocyclazocine]
Bias factor, direction of bias [1]: I, 3.1 | Emax [2]: 44.8 ± 2.2% | log RAi−G [3]: 0.015 ± 0.11 | Emax [3]: 80.6 ± 1.5%

CN1CC[C@]23CCCC[C@H]2[C@H]1Cc1ccc(O)cc13 [Levorphanol, levorphanol]
Bias factor, direction of bias [4]: I, 244 | Bias factor, direction, mKOP receptor (Table 5) [4]: I, 244 | Bias factor, mKOP receptor (Table 5) [4]: I, 244 | Functional selectivity (bias) in words [4]: internalization-biased | log RAi−G/RAi−I (log bias) [4]: −2.39 ± 0.37 | Internalization Emax (% receptor internalized) [2]: did not cause significant internalization; also recorded: lacked an effect on receptor internalization; also recorded: did not cause receptor internalization; also recorded: No internalization | Internalization pEC50 [2]: No internalization | EC50 [5]: 0.00083 µM | log RAi−I [5]: 0.29 ± 0.35 | Emax ([5]; read-out: Internalization Emax (% receptor internalized)): 29.7 ± 1.7% | Agonist efficacy in [35S]GTPγS binding, in words [6]: partial agonists | EC50 ([6]; [35S]GTPγS binding pEC50): 0.0302 µM | Emax [6]: 62.3 ± 2.9% | Agonist efficacy in [35S]GTPγS binding, in words [3]: weak partial agonist; also recorded: partial agonists | EC50 ([3]; [35S]GTPγS binding EC50, mean): 0.072 µM | Emax [3]: 38.1 ± 4.8%

C=CCN1CC[C@]23c4c5ccc(O)c4O[C@H]2[C@@H](O)C=C[C@H]3[C@H]1C5 [Nalorphine, nalorphine]
Bias factor (larger RAi divided by smaller) [1]: I ^c, 2.5 | Bias factor, direction of bias [1]: I ^c, 2.5 | Functional selectivity (bias) in words [1]: did not reach statistical significance | Internalization Emax (% receptor internalized) [2]: 23.7 ± 4.0% | EC50 ([2]; Internalization pEC50): 0.012 µM | Emax [2]: 23.9% | EC50 ([3]; [35S]GTPγS binding pEC50): 0.0275 µM | Emax [3]: 51.4 ± 2.3%

CC(C)=CCN1CCC2(C)c3cc(O)ccc3CC1C2C (centres unmarked) [Pentazocine, pentazocine]
Bias factor (larger RAi divided by smaller) [1]: I ^c, 5.8 | Bias factor, direction of bias [1]: I ^c, 5.8 | Bias factor, direction, hKOP receptor (Table 5) [1]: I ^c, 5.8 | Bias factor, hKOP receptor (Table 5) [1]: I ^c, 5.8 | log RAi−I [2]: −0.87 ± 0.22 | EC50 ([2]; Internalization EC50, mean): 0.092 µM | EC50 ([2]; Internalization pEC50): 0.0912 µM | Emax [2]: 37 ± 13.3% | Internalization Emax (% receptor internalized) [5]: did not cause significant internalization; also recorded: lacked significant effects on receptor internalization; also recorded: did not cause receptor internalization; also recorded: not mKOP receptor; also recorded: No internalization | Agonist efficacy in [35S]GTPγS binding, in words [6]: partial agonists | Emax [6]: 46.6 ± 2.7% | Agonist efficacy in [35S]GTPγS binding, in words [3]: partial agonists | EC50 ([3]; [35S]GTPγS binding EC50, mean): 0.028 µM | EC50 ([3]; [35S]GTPγS binding pEC50): 0.0282 µM | Emax [3]: 20.5 ± 6.9%

COC(=O)[C@@H]1C[C@H](OC(C)=O)C(=O)[C@H]2[C@@]1(C)CC[C@H]1C(=O)O[C@H](c3ccoc3)C[C@]21C [Salvinorin A, salvinorin A]
Sedation and anhedonia-like actions [7]: produced sedation and anhedonia-like actions

CN1c2ccccc2C(c2ccccc2F)=NCC1CNC(=O)c1ccsc1 (centres unmarked) [Tifluadom, tifluadom]
Bias factor, direction of bias [1]: I, 11.8 | EC50 ([2]; Internalization pEC50): 0.0112 µM | Emax [2]: 29.6 ± 2.1% | EC50 ([3]; [35S]GTPγS binding EC50, mean): 0.333 µM | Emax [3]: 97.2 ± 11%

COC(=O)/C=C/C(=O)N[C@@H]1CC[C@@]2(O)[C@H]3Cc4ccc(O)c5c4[C@@]2(CCN3CC2CC2)[C@H]1O5 [β-FNA, β-funaltrexamine]
Bias factor (larger RAi divided by smaller) [1]: I ^c, 1.2 | Bias factor, direction of bias [1]: I ^c, 1.2 | Functional selectivity (bias) in words [1]: did not reach statistical significance | Internalization Emax (% receptor internalized) [2]: 32.8 ± 5.7% | Internalization pEC50 [2]: 8.02 ± 0.47 (9.6) | EC50 ([2]; read-out: Internalization EC50, mean): 0.0096 µM | [35S]GTPγS binding Emax [3]: 63.7 ± 2.4% | [35S]GTPγS binding pEC50 [3]: 8.08 ± 0.09 (8.4) | EC50 ([3]; read-out: [35S]GTPγS binding EC50, mean): 0.0084 µM

RB-64
Sedation and anhedonia-like actions [7]: did not induce sedation or anhedonia-like effects
